Measurements taken from patent US5075336A, “Alkaline earth metal salts of oxa polyacid compounds” (Adir et Compagnie, priority 1990, dated 1991).
Like-named read-outs stand apart in the source and are kept apart here.

Tests used:
[1] = system: Demi-calvarias of newly born mice; experiment: Osseous formation in tissue culture: incorporation of tritiated proline (T/C ratio); format: cell-based; conditions: 48 h, n = 7
Protocol: (§1) The activity on osseous formation and the anti-resorbing activity of compounds potentially active as medicaments may be detected and measured in vitro in tissue culture.
Demi-calvarias of newly born mice (1-2 days) are cultured on gratings in BGJ medium containing tritiated proline. The explants are cultured for 48 h in the presence of the tested compound at 37° C. and at the end of the culture the bones are washed in trichloroacetic acid containing non-radioactive proline in order to remove the ^3 H-proline which has not been incorporated.
After washing and dissolving in sodium hydroxide solution, the incorporation of the labler in the bone and the amount of total proteins are counted. The effect of the product on the incorporation of proline in the bone in culture is thus evaluated.
Each treated demi-calvaria is compared with the untreated demi-calvaria which serves as control and the T/C ratio is calculated. [formula]
A stimulation of the osseous formation is reflected by a higher incorporation of tritiated proline in the treated demi-calvaria than in the control (T/C>1). An inhibition of the osseous formation is shown by a T/C ratio of <1.
The compounds were tested at concentrations of 10^-4, 10^-6, 10^-8, 10^-10 and 10^-12 M.
6 to 9 experiments were carried out per point.

[2] = system: forearms of rat foetuses (PTH-stimulated osseous resorption); experiment: Osseous resorption in tissue culture: 45Ca salted out from PTH-stimulated foetal forearm bones; format: cell-based, rats
Protocol: as §1
18-day pregnant rats are injected with 150 μcuries of ^45 Ca subcutaneously.
On the 19th day the rats are sacrificed and the foetuses are removed, immersed in a bath of alcohol at 70° are then two baths of PBS and killed by cutting off the head. The two forearms are dissected, the skin, the tendons and the muscles are removed and the cartilaginous extremities are cut off. The forearms are cultured in 24-well culture boxes in the presence of 1.5 ml of MEM for 24 hours for equilibration. At the end of said 24 hours, the medium is replaced by 1.5 ml of BGJB supplemented with 10% of foetal calf serum. The resorption is stimulated in all of the samples by […] of PTH. The bones are cultured for two successive periods of 72 hours each and the culture media are removed to determine the amount of ^45 Ca salted out at the end of each of these two periods. At the end of the second period (7 days after the start of culture), the bones are immersed for 24 hours in 1.5 ml of 10% formic acid and the ^45 Ca salted out from the bones is also determined in a scintillation counter.
The results are expressed for each of the two culture periods by the treated/control ratio calculated in the following way: [formula]
The compounds were tested on this model at concentrations of 5×10^-3 and 5×10^-4 M.

[3] = Bioavailability (Sr2+ by atomic absorption spectrometry); conditions: rat, in vivo, po, 50 mg/kg; male wistar rats, 50 mg Sr2+ per kg, gelatin mini capsules; compared with strontium chloride; read-out: Absolute bioavailability
Protocol: the determination was carried out on groups of 5 male wistar rats
administration is in a dose of 50 mg of Sr^2+ per kg in the form of gelatin mini capsules,
the determination was carried out by atomic absorption spectrometry using flame ionisation for the concentrations higher than 1 μg/ml and furnace ionisation for the concentrations lower than 1 μg/ml

[4] = PTH alone (reference of the ratio)

CCOC(OC(CO)C(=O)O)C(=O)O (stereo not drawn) [Example 1, Strontium 2-ethoxy-4-hydroxymethyl-3-oxa pentanedioate]
Osseous formation, T/C ratio, maximum value ([1]; 10^-4 M): 1.8034
Osseous formation, T/C ratio, minimum value ([1]; 10^-4 M): 1.2095
Osseous formation, T/C ratio, maximum value ([1]; 10^-6 M): 1.4652
Osseous formation, T/C ratio, minimum value ([1]; 10^-6 M): 0.8433
Osseous formation, T/C ratio, maximum value ([1]; 10^-8 M): 1.2092
Osseous formation, T/C ratio, minimum value ([1]; 10^-8 M): 0.8511
Osseous formation, T/C ratio, maximum value ([1]; 10^-10 M): 1.0974
Osseous formation, T/C ratio, minimum value ([1]; 10^-10 M): 0.8467
Osseous formation, T/C ratio, maximum value ([1]; 10^-12 M): 1.2822
Osseous formation, T/C ratio, minimum value ([1]; 10^-12 M): 0.8988
activity at 100 µM ([1]; Mus musculus, 10^-4 M, 37° C., marked **): 150%
activity at 1 µM ([1]; Mus musculus, 10^-6 M, 37° C.): 107%
activity at 0.01 µM ([1]; Mus musculus, 10^-8 M, 37° C.): 103%
activity at 0.0001 µM ([1]; Mus musculus, 10^-10 M, 37° C.): 97.2%
activity at 1 pM ([1]; Mus musculus, 10^-12 M, 37° C.): 106%
Level of osseous resorption (%), D1-D4 ([2]; 5 10^-3 (M), PTH-stimulated, 9 determinations per point, (c) different from PTH at p < 0.05): 6.4 ± 0.9%
Level of osseous resorption (%), D1-D4 ([2]; 5 10^-4 (M), PTH-stimulated, 9 determinations per point): 14.5 ± 4.1%
activity at 5000 µM ([2]; Rattus norvegicus, 5 10^-3 (M), PTH-stimulated, read-out: Osseous resorption T/C, D1-D4): 45%
activity at 5000 µM ([2]; Rattus norvegicus, 5 10^-3 (M), PTH-stimulated, read-out: Osseous resorption T/C, D4-D7): 6%
activity at 500 µM ([2]; Rattus norvegicus, 5 10^-4 (M), PTH-stimulated, read-out: Osseous resorption T/C, D1-D4): 101%
activity at 500 µM ([2]; Rattus norvegicus, 5 10^-4 (M), PTH-stimulated, read-out: Osseous resorption T/C, D4-D7): 84%
minimal effective concentration ([2]; Rattus norvegicus, in vitro, PTH-stimulated, read-out: Concentration from which anti-resorbing activity is statistically significant): 500 µM
bioavailability [3]: 60.5%

B1: PTH: PTH, used to stimulate the resorption in all of the samples (protein, UniProt P01270 32-115, looked up)
Parathyroid hormone: SVSEIQLMHNLGKHLNSMERVEWLRKKLQDVHNFVALGAPLAPRDAGSQRPRKKEDNVLVESHEKSLGEADKADVNVLTKAKSQ
modifications: Parathyroid hormone
notes: PTH, used to stimulate the resorption in all of the samples
Osseous resorption T/C, D1-D4 [2, 4]: 1.00
Osseous resorption T/C, D4-D7 [2, 4]: 1.00
Level of osseous resorption (%), D1-D4 ([2]; PTH alone, 9 determinations per point, (a) different from control at p < 0.05): 14.3 ± 3.4%
Level of osseous resorption (%), D1-D7 ([2]; PTH alone, 9 determinations per point, (b) different from control at p < 0.0001): 37.0 ± 7.6%
